Data taken from US20100249125A1, “INHIBITION OF PROSTGLANDIN E2 RECEPTORS FOR THE TREATMENT OF ENDOMETRIOSIS” (THE TEXAS A&M UNIVERSITY SYSTEM, priority 2009, published 2010).
Entries after “also recorded” stand apart in the source; their conditions may differ. Like-named read-outs stand apart in the source and are kept apart here.

Tests used:
[1] = tested on: human endometriotic epithelial cells 12Z; assay: Cell proliferation assay (Coulter counter); assay type: cell-based; settings: 12Z cells; 0-200 concentration series
Method: (§1) EP2/EP4 small interfering RNA (siRNA): 12Z and 22B cells (3.0×10^5/well) were cultured in antibiotic-free DMEM/F12 with 10% FBS in six-well tissue culture plates. At 70-80% confluency, cells were used for EP2, EP4 or EP2/EP4 knock-down experiments using SMART-pool siRNA duplex delivered by DharmaFect-1 as described previously (11) and per manufacturer's instructions (Dharmacon Inc, Lafayette, Colo.). As an internal control, MOCK siRNA was used. According to the manufacturer's instructions, SMARTpool siRNA were consisted of at least four individual siRNA duplexes targeted against a specific gene and designed using a bioinformatics technology known as SMARTselection. […] The inventors used SMARTpool siRNA in order to use more than one siRNA duplex from different regions of the gene of interest to avoid non-specific indirect effects of single siRNA duplex to a single region of the target gene. Briefly, siRNA duplexes (100 nM/well) and DharmaFect-1 (3 μl/well) were diluted in 50 μl antibiotic and serum-free DMEM/F12 medium separately and mixed gently and incubated for 5 min at room temperature. Afterwards, EP2, EP4 or EP2/EP4 siRNA and DharmaFect-1 were mixed (total volume 100 μl) and incubated at room temperature for 20 min. Then, 100 μl siRNA: DharmaFect-1 complex was diluted with 2 ml antibiotic-free media with 10% FBS and added to the well. After 24 h, the medium was replaced with fresh DMEM/F12 with 10% FBS and incubated for 24 h. Fluorescence labeled siGLO RISC-free siRNA was transfected separately and transfection efficiency was estimated using a fluorescence microscope. Transfection efficiency more than 80% was considered as optimal conditions for further experiments. Efficiency of siRNA on silencing of EP2 and EP4 genes and proteins was assessed by RT-PCR and western blot, respectively 72 h post-transfection knock-down efficiency was 70-80% in both 12Z and 22B cells.
(§2) Cell Proliferation Assay: The 12Z and 22B cells (1×10^5/well) were cultured in DMEM/F12 with 10% FBS in six-well plates. At 70%-80% confluency the cells were cultured in DMEM/F12 with 2% dextran charcoal-treated FBS and treated with inhibitors for EP1 (SC19220; […]), EP2 (AH6809; […]), EP4 (AH23848; […]), or a combination of EP2 (AH6809; […]) and EP4 (AH23848; […]) for 36 hours. The concentrations for each inhibitor was determined by dose-response studies using […] and an optimal concentration was selected based on its effects on proliferation of human endometriotic cells (FIGS. 6A-6B). These inhibitors competitively bind with respective receptors and inhibit their functions (40-42). For the siRNA study, 24 hours after transfection of siRNA the medium was replaced and the cells were cultured in 2% dextran charcoal-treated FBS, which was considered as time 0 hour, and cell proliferation was estimated at 36 hours. The number of cells was counted using a Coulter counter (11) and considered as 100% present in control. Data were expressed as mean±SEM of three independent studies conducted in duplicate.

[2] = tested on: human endometriotic stromal cells 22B; assay: Cell proliferation assay (Coulter counter); assay type: cell-based; settings: 22B cells; 0-200 concentration series
Method: as §1, §2

[3] = tested on: human endometriotic epithelial cells 12Z; assay: Cell viability assay (WST-1); assay type: cell-based; settings: 12Z cells; AH6809 75 μM, AH23848 50 μM, alone or combined; vs control
Method: (§3) Cell Viability Assay: The 12Z and 22B cells (1.25×10^4 cells/well) were cultured in DMEM/F12 with 10% FBS in 96-well plates and treated as described previously. At the end of the experiments the cell viability (metabolic activity) was determined using a cell proliferation assay kit WST-1 according to the manufacturer's (Roche Applied Sciences) instructions. Metabolic activity recorded in control cells was considered as 100%. Data were expressed as mean±SEM of three independent experiments conducted in triplicate.

[4] = tested on: human endometriotic stromal cells 22B; assay: Cell viability assay (WST-1); assay type: cell-based; settings: 22B cells; AH6809 75 μM, AH23848 50 μM, alone or combined; vs control
Method: as §3

[5] = tested on: human endometriotic epithelial cells 12Z; assay: TUNEL apoptosis assay (flow cytometry, fluorescence microscopy); assay type: cell-based; settings: 12Z cells, 24 h; for Induced apoptosis (TUNEL, flow cytometry): AH6809 75 μM, AH23848 50 μM, alone or combined
Method: (§4) These well-characterized 12Z and 22B cells were cultured in DMEM/F12 without special steroid treatment containing 10% fetal bovine serum (FBS) and penicillin (100 U/ml), streptomycin (100 μg/ml) and amphotericin-B 2.5 μg/ml in a humidified 5% CO2 and 95% air at 37° C. as we described previously (11, 39). At 70-80% confluency the cells were cultured in DMEM/F12 with 2% dextran-charcoal-treated fetal bovine serum (DC-FBS) and treated with EP inhibitors (EP-I) for EP1 (SC19220-100 100 μM), EP2 (AH6809-75 μM) and/or EP4 (AH23848-50 μM) for 24 h.
as §1
(§5) Terminal deoxynucleotide transferase dUTP nick end labeling (TUNEL) assay: Non-adherent and adherent cells were harvested, mixed together, and resuspended at the concentrations of 1×10^6 cells/ml. Nicks in the DNA were determined by terminal deoxynucleotidyl transferase (TdT) and 5-bromo-2′-deoxyuridine 5′-triphosphate (BrdUTP) labeling using APO-BrdU TUNEL Assay Kit. Detection of BrdU incorporation at DNA break sites was achieved through Alexa Fluor 488 dye-labeled anti-BrdU antibody. The staining procedures were performed as recommended by manufacturers. Numbers of apoptotic cells were analyzed by a flowcytometer (FACSCaliber, Becton Dickinson, San Jose, Calif.) using Cell Quest software. In addition, the presence of TUNEL labeled DNA fragments were determined by fluorescence microscopy. Digital images were captured using a Zeiss Axioplan 2 Research Microscope with an Axiocam HR digital camera.

[6] = tested on: human endometriotic stromal cells 22B; assay: as above; assay type: cell-based; settings: 22B cells, 24 h; for Induced apoptosis (TUNEL, flow cytometry): AH6809 75 μM, AH23848 50 μM, alone or combined
Method: as §4, §1, §5

[7] = Cell viability assay (WST-1); assay type: cell-based, human; settings: human, AH6809 75 μM, AH23848 50 μM, alone or combined, vs control, read-out: Decrease of cell viability
Method: as §3

[8] = tested on: human immortalized endometriotic epithelial cells 12Z and stromal cells 22B; settings: associated with decreased PGE2 production; cited from earlier work
endometriotic implant = settings: hamster model; through caspase-3 dependent apoptosis; cited from earlier work
estrogen receptor = settings: treatment of endometriosis in women; cited from earlier work
[9] = tested on: COX-2 along with p450 aromatase; settings: 3.75 mg, for 1 month; eutopic endometria; cited from earlier work
endometriotic lesions = settings: nude mice model; cited from earlier work
[10] = 25 mg/d for 6 months, women with endometriosis; cited from earlier work

For `O=C(O)CC/C=C\CC[C@H]1[C@H](N2CCOCC2)C(=O)C[C@H]1OCc1ccc(-c2ccccc2)cc1` (relative stereo) [AH23848, (4Z)-7-[(rel-1S,2S,5R)-5-((1,1′-Biphenyl-4-yl)methoxy)-2-(4-morpholinyl)-3-oxocyclopentyl]-4-heptenoic acid], the “Proliferation, dose response experiment” value [1] was “decreased (P<0.05) proliferation”, the “Proliferation, dose response experiment” value [2] was “decreased (P<0.05) proliferation” and the “Decrease of cell viability” value [3] was ~55%. The “Decrease of cell viability” value [4] was ~45%, the “Induced apoptosis (TUNEL, flow cytometry)” value (shortened to “Induced apoptosis”) [5] was ~55% and the “Induced apoptosis” value [6] was ~45%.

With `CC(C)Oc1ccc2c(=O)c3cc(C(=O)O)ccc3oc2c1` [AH6809, 6-Isopropoxy-9-oxoxanthene-2-carboxylic acid] the “Proliferation, dose response experiment” value [1] was “decreased (P<0.05) proliferation”, the “Proliferation, dose response experiment” value [2] was “decreased (P<0.05) proliferation” and the cytotoxicity at 75 μM ([7]; 12Z endometriotic epithelial cells, 12Z cells) was ~55%. For the same compound, the cytotoxicity at 75 μM ([7]; 22B endometriotic stromal cells, 22B cells) was ~45%, the “Induced apoptosis” value [5] was ~55% and the “Induced apoptosis” value [6] was ~45%.

In the case of `CS(=O)(=O)Nc1ccc([N+](=O)[O-])cc1OC1CCCCC1` [NS-398], the “Survival, migration and invasion” value [8] is given as “prevents survival, migration, and invasion; also recorded: prevents survival, migration and invasion” and the “Regression of endometriotic implant” value (endometriotic implant) is given as “induced regression of endometriotic implant”.

In the case of `CC(=O)NNC(=O)N1Cc2ccccc2Oc2ccc(Cl)cc21` [SC19220], the “Proliferation, dose response experiment” value [1] is reported as “did not decrease proliferation”, the “Proliferation, dose response experiment” value [2] is reported as “did not decrease proliferation” and the “Induction of apoptosis (TUNEL)” value ([5]; SC19220 100 μM) is reported as “did not induce apoptosis”. For the same compound, the “Induction of apoptosis (TUNEL)” value ([6]; SC19220 100 μM) was “did not induce apoptosis”.

For `C[C@]12CC[C@@H]3c4ccc(O)cc4C[C@@H](CCCCCCCCC[S+]([O-])CCCC(F)(F)C(F)(F)F)[C@H]3[C@@H]1CC[C@@H]2O` (some centres unmarked) [fulvestrant], the “Outcome of clinical trial” value (estrogen receptor) is listed as “discontinued due to unfavorable outcomes”.

For `CCNC(=O)[C@@H]1CCCN1C(=O)[C@H](CCCNC(=N)N)NC(=O)[C@H](CC(C)C)NC(=O)[C@@H](CC(C)C)NC(=O)[C@H](Cc1ccc(O)cc1)NC(=O)[C@H](CO)NC(=O)[C@H](Cc1c[nH]c2ccccc12)NC(=O)[C@H](Cc1c[nH]cn1)NC(=O)[C@@H]1CCC(=O)N1` [leuprolide acetate], the “Expression of COX-2 and p450 aromatase” value [9] is given as “decreased expression of COX-2 along with p450 aromatase”.

In the case of `CS(=O)(=O)Nc1ccc([N+](=O)[O-])cc1Oc1ccccc1` [nimesulide], the “Number and size of endometriotic lesions” value (endometriotic lesions) is listed as “failed to decrease number and size of endometriotic lesions”.

In the case of `O=C(c1ccc(OCCN2CCCCC2)cc1)c1c(-c2ccc(O)cc2)sc2cc(O)ccc12` [raloxifene], the “Outcome of clinical trial” value (estrogen receptor) is listed as “discontinued due to unfavorable outcomes”.

In the case of `CS(=O)(=O)c1ccc(C2=C(c3ccccc3)C(=O)OC2)cc1` [rofecoxib], the Pelvic pain symptoms [10] is listed as “effectively suppressed the pelvic pain symptoms”.
